Test results taken from patent US20090124682A1, “Indan-Amide Derivatives with Glycogen Phosphorylase Inhibitory Activity” (priority 2005, published 2009).

What was measured:
db/db and ob/ob mice = db/db and ob/ob mice following treatment; cited from earlier work
hepatocytes = settings: cited from earlier work; for glucose output: glucagon stimulated
[1] = molecular target: T1, Human recombinant liver glycogen phosphorylase a (hrl GPa) (Homo sapiens, UniProt P06737); assay: glycogen phosphorylase multienzyme coupled assay (glucose-1-phosphate production from glycogen); type: biochemical; settings: hrl GPa 20 nM, 6 hours at 30° C., 8 mM glucose
T1 sequence (P06737 1-847): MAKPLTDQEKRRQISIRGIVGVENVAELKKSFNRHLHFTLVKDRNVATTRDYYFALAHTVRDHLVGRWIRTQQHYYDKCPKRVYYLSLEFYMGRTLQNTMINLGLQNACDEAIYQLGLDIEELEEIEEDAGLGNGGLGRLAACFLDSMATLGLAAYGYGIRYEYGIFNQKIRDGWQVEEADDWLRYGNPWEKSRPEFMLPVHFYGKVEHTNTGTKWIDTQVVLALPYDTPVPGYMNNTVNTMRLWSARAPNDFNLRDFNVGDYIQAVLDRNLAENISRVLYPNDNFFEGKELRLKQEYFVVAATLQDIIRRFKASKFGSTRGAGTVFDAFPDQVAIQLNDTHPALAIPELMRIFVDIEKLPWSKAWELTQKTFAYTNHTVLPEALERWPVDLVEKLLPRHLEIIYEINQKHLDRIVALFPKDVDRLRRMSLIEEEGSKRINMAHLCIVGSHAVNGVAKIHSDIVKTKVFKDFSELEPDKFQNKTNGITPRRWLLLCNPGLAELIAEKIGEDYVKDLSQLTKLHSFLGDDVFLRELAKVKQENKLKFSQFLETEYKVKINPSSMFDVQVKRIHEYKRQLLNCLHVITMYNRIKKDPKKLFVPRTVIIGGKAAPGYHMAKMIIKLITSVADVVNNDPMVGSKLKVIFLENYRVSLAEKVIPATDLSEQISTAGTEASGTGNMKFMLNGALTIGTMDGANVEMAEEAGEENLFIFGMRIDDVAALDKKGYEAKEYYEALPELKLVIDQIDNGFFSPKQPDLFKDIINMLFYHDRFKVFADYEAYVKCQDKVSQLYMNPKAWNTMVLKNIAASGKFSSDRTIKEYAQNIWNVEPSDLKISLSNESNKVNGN
Method: The activity of the compounds is determined by measuring the inhibitory effect of the compounds on glycogen degradation, the production of glucose-1-phosphate from glycogen is monitored by the multienzyme coupled assay, as described in EP 0 846 464 A2, general method of Pesce et al (Pesce, M A, Bodourian, S H, Harris, R C, and Nicholson, J F (1977) Clinical Chemistry 23, […]). The reactions were in 384 well microplate format in a volume of 50 μl. The change in fluorescence due to the conversion of the co-factor NAD to NADH is measured at 340 nm excitation, 465 nm emission in a Tecan Ultra Multifunctional Microplate Reader. The reaction is in 50 mM HEPES, 3.5 mM KH2PO4, 2.5 mM MgCl2, 2.5 mM ethylene glycol-bis(b-aminoethyl ether) N,N,N′N′-tetraacetic acid, 100 mM KCl, 8 mM D-(+)-glucose pH7.2, containing 0.5 mM dithiothreitol, the assay buffer solution. Human recombinant liver glycogen phosphorylase a (hrl GPa) 20 nM is pre-incubated in assay buffer solution with 6.25 mM NAD, 1.25 mg type III glycogen at 1.25 mg ml^−1 the reagent buffer, for 30 minutes. […] The non-inhibited activity of GPa is measured in the presence of 10 μl 15% DMSO in assay buffer solution and maximum inhibition measured in the presence of 5 mgs ml^−1 N-ethylmaleimide. […] Relative Fluoresence Units (RFUs) are measured at 340 nm excitation, 465 nm emission. […]
Activity is calculated as follows:—

conscious dogs = settings: following a glucagon challenge; cited from earlier work

Structure (SMILES): O=C(N[C@@H](Cc1ccc(F)cc1)C(=O)N1CCC(O)CC1)c1cc2cc(Cl)ccc2[nH]1 [CP320626]
- plasma glucose concentration (db/db and ob/ob mice): reduced, in a dose related manner
- glucagon stimulated glycogenolysis (hepatocytes): reduce
- glucose output (hepatocytes): reduce

Structure (SMILES): O=C(O)COC[C@@H]1c2ccccc2C[C@H]1NC(=O)c1cc2cc(F)ccc2[nH]1 [Example 2, [((1R,2R)-2-{[(5-Fluoro-1H-indol-2-yl)carbonyl]amino}-2,3-dihydro-1H-inden-1-yl)methoxy]acetic acid]
- IC50 [1]: 1670 nM

Structure (SMILES): CN(C)C(=O)[C@H](O)[C@H](Cc1ccccc1)NC(=O)c1cc2cc(Cl)ccc2[nH]1 [CP91149]
- plasma glucose concentration (db/db and ob/ob mice): reduced, in a dose related manner
- glucagon stimulated glycogenolysis (hepatocytes): reduce
- glucose output (hepatocytes): reduce

Structure (SMILES): CCN1C(C)=C(C(=O)OC(C)C)C(c2ccccc2Cl)C2=C1COC2=O (stereo not shown) [Bay R 3401]
- arterial plasma glucose (conscious dogs): reduced significantly
- hepatic glucose output (conscious dogs): reduced significantly

Structure (SMILES): O=C(O)C[C@@H]1c2ccccc2C[C@H]1NC(=O)c1cc2cc(F)ccc2[nH]1 [Example 5, ((1R,2R)-2-{[(5-Fluoro-1H-indol-2-yl)carbonyl]amino}-2,3-dihydro-1H-inden-1-yl)acetic acid]
- IC50 [1]: 161 nM
